Laboratory results from ChEMBL document CHEMBL1201862, “PubChem BioAssay data set” (2004).
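Results reflect a 48-hour exposure of cells in 96-well plates to compound at five concentrations. The concentration for 50% growth inhibition is given as GI50.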 Activity calls are given as the source filed them. No stated cut-off is given here; in the data, active = GI50 up to about 1.1 µM and inactive = higher.

Key:
Test in all cases: NCI anticancer screen, dose series, 48 h
[1] = tested on: NCI-H522
[2] = tested on: SF-539
[3] = tested on: HT-29
[4] = tested on: SW-620
[5] = tested on: ACHN
[6] = tested on: OVCAR-8
[7] = tested on: OVCAR-5
[8] = tested on: NCI/ADR-RES
[9] = tested on: KM12
[10] = tested on: MDA-MB-435
[11] = tested on: NCI-H23
[12] = tested on: OVCAR-4
[13] = tested on: SNB-19
[14] = tested on: TK-10
[15] = tested on: SF-268
[16] = tested on: HL-60
[17] = tested on: SR
[18] = tested on: UO-31
[19] = tested on: COLO 205
[20] = tested on: MDA-N
[21] = tested on: NCI-H460
[22] = tested on: 786-0
[23] = tested on: Malme-3M
[24] = tested on: SK-MEL-2
[25] = tested on: DU-145
[26] = tested on: CCRF-CEM
[27] = tested on: A549
[28] = tested on: UACC-62
[29] = tested on: SK-MEL-5
[30] = tested on: HOP-92
[31] = tested on: Hs-578T
[32] = tested on: SN12C
[33] = tested on: UACC-257
[34] = tested on: U-251
[35] = tested on: SF-295
[36] = tested on: LOX IMVI
[37] = tested on: HCT-15
[38] = tested on: HCT-116
[39] = tested on: MCF7
[40] = tested on: M14
[41] = tested on: SNB-75
[42] = tested on: K562
[43] = tested on: HOP-62
[44] = tested on: CAKI-1
[45] = tested on: IGROV-1
[46] = tested on: SK-MEL-28
[47] = tested on: RPMI-8226
[48] = tested on: MDA-MB-231
[49] = tested on: SK-OV-3
[50] = tested on: MOLT-4
[51] = tested on: PC-3
[52] = tested on: EKVX
[53] = tested on: RXF 393
[54] = tested on: OVCAR-3
[55] = tested on: NCI-H226
[56] = tested on: A498
[57] = tested on: T47D

Measured: GI50

O=C(O)CCNc1ncc2c(n1)-c1ccccc1OC2
inactive: [1] > 100 µM | [2] > 100 µM | [3] > 100 µM | [4] > 100 µM | [5] > 100 µM | [6] > 100 µM | [7] > 100 µM | [8] > 100 µM | [9] > 100 µM | [10] > 100 µM | [11] > 100 µM | [12] > 100 µM | [13] > 100 µM | [14] > 100 µM | [15] > 100 µM | [16] > 100 µM | [17] > 100 µM | [18] > 100 µM | [19] > 100 µM | [20] > 100 µM | [21] > 100 µM | [22] > 100 µM | [23] > 100 µM | [24] > 100 µM | [25] > 100 µM | [26] > 100 µM | [27] > 100 µM | [28] > 100 µM | [29] > 100 µM | [30] 29 µM | [31] 61 µM | [32] > 100 µM | [33] > 100 µM | [34] > 100 µM | [35] > 100 µM | [36] > 100 µM | [38] > 100 µM | [39] > 100 µM | [40] > 100 µM | [41] 28.8 µM | [42] > 100 µM | [43] > 100 µM | [44] > 100 µM | [45] 36.2 µM | [46] > 100 µM | [47] > 100 µM | [48] > 100 µM | [49] > 100 µM | [50] > 100 µM | [51] > 100 µM | [52] 61.7 µM | [53] > 100 µM | [54] > 100 µM | [55] > 100 µM
> 100 µM: [37]

CC(C)[Si](OC12CCC(CC1O)CC2C(=O)O)(C(C)C)C(C)C (stereo not given)
inactive: [56] 15.3 µM | [2] 27.4 µM | [3] 11.7 µM | [4] 14.9 µM | [5] 15.7 µM | [6] 16.1 µM | [7] 14 µM | [8] 13.2 µM | [9] 12.4 µM | [10] 14.5 µM | [11] 15.5 µM | [12] 12.6 µM | [13] 15.6 µM | [14] 3.88 µM | [15] 12.7 µM | [17] 23.2 µM | [18] 13.2 µM | [19] 21.7 µM | [20] 17 µM | [21] 7.76 µM | [22] 11 µM | [24] 14.6 µM | [25] 14.2 µM | [26] 13.1 µM | [27] 14.5 µM | [28] 14 µM | [29] 18.9 µM | [30] 7.31 µM | [32] 21.7 µM | [33] 16.7 µM | [34] 14.6 µM | [35] 15.7 µM | [38] 10.7 µM | [39] 11.3 µM | [40] 15.8 µM | [41] 6.1 µM | [42] 31.6 µM | [43] 14.4 µM | [44] 19.1 µM | [46] 11.2 µM | [47] 10.1 µM | [48] 14.7 µM | [49] 13.9 µM | [50] 13.2 µM | [51] 12.5 µM | [54] 14.8 µM | [57] 13.9 µM | [55] 12 µM
active: [16] 0.459 µM
12.4 µM: [37]
